# Results as given in US9827229B2, “Small molecule securinine and norsecurinine analogs and their use in cancers, inflammatory diseases and infections” (INVENIO THERAPEUTICS INC., priority 2013, dated 2017).
# Where two headings read alike, the source gives them in different places.
# Columns and labels:
# mice = assay: Seizures in mice; format: in vivo; conditions: due to GABA receptor binding
# Text: The present invention provides for methods of treating a condition as described herein with less adverse additional effects. As is known in the art, securinine antagonizes the GABAA receptor.
# HCT116 P53−/− = assay: Growth inhibition of colon cancer HCT116 P53−/−; format: cell-based
# Text: (§1) The analogs were then further tested for inhibiting growth against various cancer cell lines: AML (Mol3, OCI), Colon cancer (HCT116) and Ovary cancer (SKOV3). IC50 are documented in Table 2.
# SKOV3 P53−/− = assay: Growth inhibition of ovary cancer SKOV3 P53−/−; format: cell-based
# Text: as §1
# MOL3 = assay: Growth inhibition of AML cell line MOL3; format: cell-based, human
# Text: as §1
# HCT116 P53+/+ = assay: Growth inhibition of colon cancer HCT116 P53+/+; format: cell-based
# Text: as §1
# SKOV3 P53+/+ = assay: Growth inhibition of ovary cancer SKOV3 P53+/+; format: cell-based
# Text: as §1
# OCI = assay: Growth inhibition of AML cell line OCI; format: cell-based, human
# Text: as §1
# HL60 cells = assay: Growth of HL60 cells (IC50); format: cell-based, human; conditions: growth, no unit in head or cell (other cells of the column print uM), read-out: HL-60, IC50
# Protocol: The analogs were then tested and evaluated on the ability to affect differentiation and growth of HL60 cells.
# [1] = Homo sapiens, HCT-116, colon cancer HCT116 P53−/−
# [2] = Homo sapiens, SK-OV-3, ovary cancer SKOV3 P53−/−
# [3] = Homo sapiens, HCT-116, colon cancer HCT116 P53+/+
# [4] = Homo sapiens, SK-OV-3, ovary cancer SKOV3 P53+/+
smiles,measurement,setting,value
O=C1C=C2C=C[C@@H]3C[C@@]2(O1)[C@H]1CCCCN31 [Securinine],seizures in mice,mice,causes seizures
O=C1C=C2C(C#Cc3ccccc3)=C[C@@H]3C[C@@]2(O1)[C@H]1CCCCN31 [INVS-MG-110B],IC50,HCT116 P53−/−; [1],2300 nM
same,IC50,SKOV3 P53−/−; [2],3000 nM
same,IC50,MOL3; Homo sapiens,70 nM
same,IC50,HCT116 P53+/+; [3],1900 nM
same,IC50,SKOV3 P53+/+; [4],2100 nM
same,IC50,OCI; Homo sapiens,80 nM
CCOC#CC1=C[C@@H]2C[C@@]3(OC(=O)C=C13)[C@H]1CCCCN21 [INVS-MG-120A],IC50,HCT116 P53−/−; [1],2100 nM
same,IC50,SKOV3 P53−/−; [2],2600 nM
same,IC50,HCT116 P53+/+; [3],1600 nM
same,IC50,SKOV3 P53+/+; [4],1900 nM
COc1cccc(C#CC2=C[C@@H]3C[C@@]4(OC(=O)C=C24)[C@H]2CCCCN32)c1 [INVS-MG-165B],IC50,HCT116 P53−/−; [1],4200 nM
same,IC50,SKOV3 P53−/−; [2],3500 nM
same,IC50,HCT116 P53+/+; [3],3200 nM
same,IC50,SKOV3 P53+/+; [4],3600 nM
COc1ccc(C#CC2=C[C@@H]3C[C@@]4(OC(=O)C=C24)[C@H]2CCCCN32)cc1 [INVS-MG-134C],IC50,HCT116 P53−/−; [1],1100 nM
same,IC50,SKOV3 P53−/−; [2],2800 nM
same,IC50,MOL3; Homo sapiens,60 nM
same,IC50,HCT116 P53+/+; [3],1000 nM
same,IC50,SKOV3 P53+/+; [4],1200 nM
same,IC50,OCI; Homo sapiens,80 nM
COc1ccc2cc(C#CC3=C[C@@H]4C[C@@]5(OC(=O)C=C35)[C@H]3CCCCN43)ccc2c1 [INVS-MG-157B],IC50,HCT116 P53−/−; [1],900 nM
same,IC50,SKOV3 P53−/−; [2],700 nM
same,IC50,MOL3; Homo sapiens,90 nM
same,IC50,"HL60 cells; Homo sapiens, HL-60, HL-60 cells",0.07 to 0.156 µM
same,IC50,HCT116 P53+/+; [3],700 nM
same,IC50,SKOV3 P53+/+; [4],< 600 nM
O=C1C=C2C(C#Cc3ccsc3)=C[C@@H]3C[C@@]2(O1)[C@H]1CCCCN31 [INVS-MG-136-III],IC50,HCT116 P53−/−; colon cancer HCT116 P53−/−,2200 nM
same,IC50,SKOV3 P53−/−; ovary cancer SKOV3 P53−/−,1100 nM
same,IC50,MOL3,100 nM
same,IC50,HL60 cells; HL-60 cells,< 0.07 µM
same,IC50,HCT116 P53+/+; colon cancer HCT116 P53+/+,1800 nM
same,IC50,SKOV3 P53+/+; ovary cancer SKOV3 P53+/+,700 nM
same,IC50,OCI,115 nM
O=C1C=C2C(C#Cc3ccsc3)=C[C@@H]3C[C@@]2(O1)[C@H]1CCCCN31 [INVS-MG-136B],IC50,HCT116 P53−/−; [1],2100 nM
same,IC50,SKOV3 P53−/−; ovary cancer SKOV3 P53−/−,2900 nM
same,IC50,MOL3; Homo sapiens,60 nM
same,IC50,HCT116 P53+/+; [3],2200 nM
same,IC50,SKOV3 P53+/+; ovary cancer SKOV3 P53+/+,2800 nM
O=C1C=C2C(I)=C[C@@H]3C[C@@]2(O1)[C@H]1CCCCN31 [INVS-MG-82-II],IC50,HCT116 P53−/−; [1],1100 nM
same,IC50,SKOV3 P53−/−; [2],3100 nM
same,IC50,MOL3; Homo sapiens,90 nM
same,IC50,HCT116 P53+/+; [3],1400 nM
same,IC50,SKOV3 P53+/+; [4],1600 nM
same,IC50,OCI; Homo sapiens,100 nM
N#CCCCC#CC1=C[C@@H]2C[C@@]3(OC(=O)C=C13)[C@H]1CCCCN21 [INVS-MG-125A],IC50,HCT116 P53−/−; [1],2000 nM
same,IC50,SKOV3 P53−/−; [2],2400 nM
same,IC50,HCT116 P53+/+; [3],1300 nM
same,IC50,SKOV3 P53+/+; [4],1300 nM
O=C1C=C2C(C#Cc3ccc(OC(F)(F)F)cc3)=C[C@@H]3C[C@@]2(O1)[C@H]1CCCCN31 [INVS-MG-166B],IC50,HCT116 P53−/−; [1],3800 nM
same,IC50,SKOV3 P53−/−; [2],3200 nM
same,IC50,MOL3; Homo sapiens,> 300 nM
same,IC50,HCT116 P53+/+; [3],2400 nM
same,IC50,SKOV3 P53+/+; [4],3500 nM
same,IC50,OCI; Homo sapiens,> 300 nM
CCCN(CC#CC1=C[C@@H]2C[C@@]3(OC(=O)C=C13)[C@H]1CCCCN21)CCC [INVS-MG-152A],IC50,HCT116 P53−/−; [1],1900 nM
same,IC50,SKOV3 P53−/−; [2],700 nM
same,IC50,MOL3; Homo sapiens,80 nM
same,IC50,HCT116 P53+/+; [3],900 nM
same,IC50,SKOV3 P53+/+; [4],< 600 nM
same,IC50,OCI; Homo sapiens,70 nM
CN(C)c1ccc(C#CC2=C[C@@H]3C[C@@]4(OC(=O)C=C24)[C@H]2CCCCN32)cc1 [INVS-MG-146B],IC50,HCT116 P53−/−; [1],1800 nM
same,IC50,SKOV3 P53−/−; [2],800 nM
same,IC50,HCT116 P53+/+; [3],800 nM
same,IC50,SKOV3 P53+/+; [4],700 nM
O=C1C=C2C(C#Cc3cc4ccccc4c4ccccc34)=C[C@@H]3C[C@@]2(O1)[C@H]1CCCCN31 [INVS-MG-158B],IC50,HCT116 P53−/−; [1],2300 nM
same,IC50,SKOV3 P53−/−; [2],3100 nM
same,IC50,HCT116 P53+/+; [3],1200 nM
same,IC50,SKOV3 P53+/+; [4],1200 nM
C=C(C)CC#CC1=C[C@@H]2C[C@@]3(OC(=O)C=C13)[C@H]1CCCCN21 [INVS-MG-132A],IC50,HCT116 P53−/−; [1],2200 nM
same,IC50,SKOV3 P53−/−; [2],3800 nM
same,IC50,HCT116 P53+/+; [3],2400 nM
same,IC50,SKOV3 P53+/+; [4],2400 nM
same,IC50,OCI; Homo sapiens,200 nM
CN(C)CC#CC1=C[C@@H]2C[C@@]3(OC(=O)C=C13)[C@H]1CCCCN21 [INVS-MG-111B],IC50,HCT116 P53−/−; [1],1500 nM
same,IC50,SKOV3 P53−/−; [2],2800 nM
same,IC50,MOL3; Homo sapiens,70 nM
same,IC50,HCT116 P53+/+; [3],1100 nM
same,IC50,SKOV3 P53+/+; [4],1800 nM
same,IC50,OCI; Homo sapiens,90 nM
CCN(CC)CC#CC1=C[C@@H]2C[C@@]3(OC(=O)C=C13)[C@H]1CCCCN21 [INVS-MG-145A],IC50,HCT116 P53−/−; [1],2100 nM
same,IC50,SKOV3 P53−/−; [2],1200 nM
same,IC50,HCT116 P53+/+; [3],1100 nM
same,IC50,SKOV3 P53+/+; [4],800 nM
